Article PMC5116675, “The lectin-like protein 1 in Lactobacillus rhamnosus GR-1 mediates tissue-specific adherence to vaginal epithelium and inhibits urogenital pathogens” (Scientific Reports, 2016)

Tests used:
[1] = target: T1, lectin domain of LGR1_Llp1 (lectin-like protein 1) (Lacticaseibacillus rhamnosus, UniProt T1SH75); test: pull-down with sugar-coated Sepharose 6B beads, SDS-PAGE; type: binding; conditions: sugar immobilised on beads; 25 mM MES, 25 mM NaCl, 1% polyvinylalcohol, 4 °C, 2 h; 100 μg/ml lectin domain
T1 construct: gene E6L36_12050; N-terminal L-type lectin domain (PF00139, ca. 250 residues) with 22 amino acids extension, N-His6 tag (pET28a, pCMPG10775), from E. coli BL21(DE3); full protein 680 residues; FITC-labelled for glycan array
T1 sequence (T1SH75 31-352 limits assumed): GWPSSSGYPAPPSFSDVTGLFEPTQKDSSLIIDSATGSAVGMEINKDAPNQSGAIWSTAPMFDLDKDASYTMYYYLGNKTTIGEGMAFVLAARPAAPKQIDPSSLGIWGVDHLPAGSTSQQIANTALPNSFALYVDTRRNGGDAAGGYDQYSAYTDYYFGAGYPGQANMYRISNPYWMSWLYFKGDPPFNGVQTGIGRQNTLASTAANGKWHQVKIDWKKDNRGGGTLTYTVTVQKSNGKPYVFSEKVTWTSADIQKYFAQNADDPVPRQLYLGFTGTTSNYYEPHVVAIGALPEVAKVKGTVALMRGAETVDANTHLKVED

[2] = target: T1, lectin domain of LGR1_Llp1 (lectin-like protein 1); test: mammalian glycan array v5.[…] (CFG), FITC-labelled lectin domain; type: binding; conditions: glycan immobilised on NHS-activated glass slide through amino linker

Structure (SMILES)	pull-down with sugar-coated Sepharose 6B beads, SDS-PAGE [1]	mammalian glycan array v5.2 (CFG), FITC-labelled lectin domain [2]
OC[C@H]1OC(O)[C@@H](O)[C@@H](O)[C@@H]1O (stereo partly drawn) [D-mannose]	The purified lectin domain of Llp1 showed the highest binding to mannan and mannose	
CC(=O)N[C@H]1[C@H](O[C@@H]2[C@H](O[C@]3(C(=O)O)C[C@H](O)[C@@H](NC(C)=O)[C@H]([C@H](O)[C@@H](CO)O[C@]4(C(=O)O)C[C@H](O)[C@@H](NC(C)=O)[C@H]([C@H](O)[C@H](O)CO)O4)O3)[C@@H](O)[C@H](O[C@H]3[C@H](O)[C@@H](O)[C@H](OCCN)O[C@@H]3CO)O[C@@H]2CO)O[C@H](CO)[C@H](O)[C@@H]1O[C@@H]1O[C@H](CO)[C@H](O)[C@H](O[C@]2(C(=O)O)C[C@H](O)[C@@H](NC(C)=O)[C@H]([C@H](O)[C@@H](CO)O[C@]3(C(=O)O)C[C@H](O)[C@@H](NC(C)=O)[C@H]([C@H](O)[C@H](O)CO)O3)O2)[C@H]1O [Neu5Acα2-8Neu5Acα2-3Galβ1-3GalNAcβ1-4(Neu5Acα2-8Neu5Acα2-3)Galβ1-4Glcβ-Sp0]		LGR1_Llp1 showed also a capacity to bind to the glycosphingolipid GQ1 receptor
